Among the test systems are K562; U-251; HOP-92; NCI-H522; MOLT-4; RPMI-8226; NCI-H460; OVCAR-4; SF-539; KM-20L2; ACHN; KM12; SF-295; SNB-19; M14; OVCAR-8; BT-549; MDA-MB-231; PC-3; MDA-MB-435.
Common to all, as to assay: NCI-60 cell line screen, 48 h

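Tested at 5 concentrations; 48 h exposure; 96-well plates; endpoints linearly interpolated, else capped at highest concentration. The concentration for 50% growth inhibition is given as GI50.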 Active and inactive are the calls of the source. No stated cut-off is given here; in the data, active = GI50 up to about 1.1 µM and inactive = higher.

Turning to `CC(C)C(NCc1c2ccccc2[n+](C)c2ccccc12)C(=O)O` (stereo not drawn), the GI50 in the test on K562 is 0.782 µM (active); with U-251, 7.28 µM (inactive); with HOP-92 it was 3.57 µM (inactive); in the test with NCI-H522 it was 2.15 µM (inactive); in the test with MOLT-4 it was 1.14 µM (inactive); with RPMI-8226, 0.603 µM (active). For the same molecule, the GI50 was 5.94 µM (inactive) in the test on NCI-H460; 7.62 µM (inactive) in the test with OVCAR-4; 5.94 µM (inactive) in the test on SF-539; 2.78 µM (inactive) in the test on KM-20L2; 3.53 µM (inactive) with ACHN; 4.91 µM (inactive) in the test with KM12. In addition, the GI50 with SF-295 is 6.76 µM (inactive); with SNB-19, 15.5 µM (inactive); in the test with M14 it was 4.49 µM (inactive); in the test on OVCAR-8 it was 3.78 µM (inactive).
For `CNC(=O)OC1/C(C)=C\C(C)C(O)C(OC)CC(C)CC2=C(OC)C(=O)C=C(C2=O)N(C)C(=O)/C(C)=C/C=C\C1OC` (stereo not drawn), the GI50 in the test with K562 was 0.578 µM (active); in the test with U-251, 15.2 µM (inactive); in the test with HOP-92, 2.8 µM (inactive); with BT-549 it was 5 µM (inactive); in the test with NCI-H522, 0.879 µM (active); in the test on MOLT-4, 0.891 µM (active). For the same molecule, the GI50 is 1.67 µM (inactive) in the test with RPMI-8226; 11.1 µM (inactive) with NCI-H460; 9.23 µM (inactive) in the test on OVCAR-4; 2.05 µM (inactive) with MDA-MB-231; 8.32 µM (inactive) in the test on SF-539; 2.53 µM (inactive) with KM-20L2. In addition, the GI50 in the test on ACHN was 8.24 µM (inactive); in the test on KM12 it was 10.4 µM (inactive); in the test with SF-295, 24.4 µM (inactive); in the test with SNB-19, 36.2 µM (inactive); with PC-3, 11.5 µM (inactive); in the test on M14 it was 3.08 µM (inactive). The GI50 in the test on OVCAR-8 is 7.38 µM (inactive).
For `O=C(NC1=C(Cl)C(=O)c2ccccc2C1=O)C(=O)C(C(=O)c1ccc2ccccc2c1)C1OC(=O)c2ccccc21` (stereo not drawn), the GI50 was 3.55 µM (inactive) in the test with K562; 4.38 µM (inactive) in the test on U-251; 3.48 µM (inactive) in the test on BT-549; 3.94 µM (inactive) with NCI-H522; 2.06 µM (inactive) in the test on MOLT-4; 2.05 µM (inactive) with RPMI-8226. Further, the GI50 is 2.96 µM (inactive) with NCI-H460; 6.97 µM (inactive) with OVCAR-4; 2.95 µM (inactive) with SF-539; 4.52 µM (inactive) in the test with KM-20L2; 7.29 µM (inactive) in the test on ACHN; 3.09 µM (inactive) with KM12. For the same molecule, the GI50 is 3.3 µM (inactive) with SF-295; 1.7 µM (inactive) in the test on MDA-MB-435; 6.03 µM (inactive) in the test with SNB-19; 2.18 µM (inactive) in the test on M14; 4.61 µM (inactive) in the test on OVCAR-8.
Regarding `N#CC(N)(C(=O)C(=O)NCCCNC(=O)C(=O)C(N)(C#N)c1ccc(Cl)cc1)c1ccc(Cl)cc1` (stereo not drawn), the GI50 in the test with K562 is 95.3 µM (inactive); in the test with U-251, > 100 µM (inactive); in the test with HOP-92, > 100 µM (inactive); with NCI-H522, > 100 µM (inactive); in the test on MOLT-4 it was > 100 µM (inactive); with RPMI-8226, > 100 µM (inactive). Also, the GI50 in the test on NCI-H460, in the test with OVCAR-4, in the test with SF-539, with KM-20L2, in the test on ACHN and in the test with KM12 was > 100 µM (inactive) each time. Besides, the GI50 in the test on SF-295, in the test with SNB-19, with M14 and in the test with OVCAR-8 was > 100 µM (inactive) throughout.
Take `CC1=C2C(=O)C3[C@@H](CCC4=CC(=O)CC[C@@]43C)C2CC[C@]12O[C@@H]1C[C@H](C)CN[C@H]1[C@H]2C` (stereo partly drawn): the GI50 is 17.4 µM (inactive) in the test with K562; 21.4 µM (inactive) in the test with U-251; 48.2 µM (inactive) with HOP-92; 21 µM (inactive) in the test on NCI-H522; 19.9 µM (inactive) in the test with MOLT-4; 20.7 µM (inactive) with RPMI-8226. Moreover, the GI50 with NCI-H460 was 33.5 µM (inactive); in the test with OVCAR-4, > 100 µM (inactive); in the test with SF-539, 45.4 µM (inactive); in the test on KM-20L2 it was 68.4 µM (inactive); with ACHN, 31.4 µM (inactive); with KM12, 30.1 µM (inactive). The GI50 in the test on SF-295 is 32.8 µM (inactive); in the test on SNB-19, 44.4 µM (inactive); in the test on M14, 59 µM (inactive); in the test with OVCAR-8, 40.7 µM (inactive).
For `CCOC(=O)CN(Cc1ccccc1)Cc1c(C(=O)c2ccccc2)c2ccccc2n1C(=O)c1ccccc1`, the GI50 is > 100 µM (inactive) in the test with K562; > 100 µM (inactive) in the test on U-251; 10.4 µM (inactive) with HOP-92; > 100 µM (inactive) in the test with NCI-H522; 5.4 µM (inactive) with MOLT-4; 17.9 µM (inactive) with RPMI-8226. For the same molecule, the GI50 with NCI-H460, in the test with OVCAR-4, in the test on SF-539, in the test on KM-20L2, in the test with ACHN and in the test with KM12 was > 100 µM (inactive) throughout. Also, the GI50 with SF-295, in the test on SNB-19, in the test with M14 and in the test on OVCAR-8 was > 100 µM (inactive) in each case.
Regarding `COc1ccc2c(c1)c(=O)c1c(NCCCN(C)C)ccc3ncn2c31`, the GI50 in the test with K562 was 2.92 µM (inactive); in the test with U-251, 1.35 µM (inactive); in the test on HOP-92, 4.13 µM (inactive); in the test with BT-549, 17.6 µM (inactive); with NCI-H522 it was 0.993 µM (active); in the test on MOLT-4, 0.215 µM (active). Further, the GI50 was 1.29 µM (inactive) in the test with RPMI-8226; 1.39 µM (inactive) with NCI-H460; 1.15 µM (inactive) in the test with OVCAR-4; 3.93 µM (inactive) in the test on SF-539; 1.12 µM (inactive) in the test on KM-20L2; 0.659 µM (active) with ACHN. In addition, the GI50 with KM12 is 1.38 µM (inactive); with SF-295 it was 1.47 µM (inactive); in the test with MDA-MB-435 it was 6.05 µM (inactive); with SNB-19, 3.95 µM (inactive); with PC-3, 2.65 µM (inactive); with M14, 4.78 µM (inactive). In addition, the GI50 with OVCAR-8 was 0.495 µM (active).
For the molecule `COc1cccc(NC(=O)C(C)(C)C)c1SSc1c(NC(=O)C(C)(C)C)cccc1OC`, the GI50 was 22.9 µM (inactive) in the test on K562; 17.3 µM (inactive) in the test with U-251; 36.1 µM (inactive) with HOP-92; 14.2 µM (inactive) with NCI-H522; 17.7 µM (inactive) in the test with MOLT-4; 5.78 µM (inactive) with RPMI-8226. In addition, the GI50 in the test with NCI-H460 was 60.4 µM (inactive); in the test with OVCAR-4, 22.8 µM (inactive); in the test on SF-539 it was 20.8 µM (inactive); in the test on KM-20L2, 98.4 µM (inactive); in the test with ACHN, 33.5 µM (inactive); with KM12, 26.9 µM (inactive). The GI50 in the test with SF-295 was 36.9 µM (inactive); in the test on SNB-19, 59 µM (inactive); in the test on M14 it was 17.5 µM (inactive); in the test on OVCAR-8 it was 19.3 µM (inactive).
Turning to `CN(C)C(=O)Nc1c([N+](=O)[O-])cc(C(F)(F)F)cc1[N+](=O)[O-]`, the GI50 is 37.6 µM (inactive) in the test with K562; > 100 µM (inactive) in the test with U-251; 53.5 µM (inactive) in the test on HOP-92; 29.9 µM (inactive) with NCI-H522; 78.5 µM (inactive) with MOLT-4; 41.1 µM (inactive) in the test with RPMI-8226. The GI50 was 42.9 µM (inactive) in the test with NCI-H460; 27.7 µM (inactive) with OVCAR-4; 42 µM (inactive) in the test with SF-539; 26.5 µM (inactive) in the test on KM-20L2; 83.4 µM (inactive) with ACHN; 37 µM (inactive) with KM12. For the same molecule, the GI50 in the test with SF-295 was 63.4 µM (inactive); in the test with SNB-19, > 100 µM (inactive); in the test with M14 it was 44.6 µM (inactive); in the test with OVCAR-8 it was 40.4 µM (inactive).
On to `CC1=CC(=O)CCC2(C)C1CC[C@@H]2OC=O` (stereo partly drawn), for which the GI50 in the test on K562, in the test with U-251, in the test on HOP-92, in the test with NCI-H522, in the test on MOLT-4 and in the test on RPMI-8226 was > 100 µM (inactive) each time. The GI50 was > 100 µM (inactive) in the test with NCI-H460; > 100 µM (inactive) in the test on OVCAR-4; > 100 µM (inactive) with SF-539; 82.2 µM (inactive) with KM-20L2; > 100 µM (inactive) in the test on ACHN; > 100 µM (inactive) with KM12. For the same molecule, the GI50 in the test on SF-295, with SNB-19, with M14 and in the test on OVCAR-8 was > 100 µM (inactive) in each case.
On to `COC(=O)c1cc2c3ccccc3n(C(C)=O)c2cn1`, for which the GI50 in the test on K562 is 59.2 µM (inactive); in the test on U-251, > 100 µM (inactive); with HOP-92, 49 µM (inactive); with NCI-H522 it was 53.1 µM (inactive); with MOLT-4 it was 41.6 µM (inactive); with RPMI-8226, 45.4 µM (inactive). The GI50 was 35.6 µM (inactive) in the test on NCI-H460; 60 µM (inactive) with OVCAR-4; > 100 µM (inactive) with SF-539; > 100 µM (inactive) in the test on KM-20L2; 53.8 µM (inactive) in the test on ACHN; 80.5 µM (inactive) in the test with KM12. Also, the GI50 in the test on SF-295 is > 100 µM (inactive); in the test on SNB-19, > 100 µM (inactive); in the test with M14, > 100 µM (inactive); in the test with OVCAR-8, 56.4 µM (inactive).

For the origin of these results see ChEMBL document CHEMBL1201862, “PubChem BioAssay data set” (2004).
